Measurements as given in US20120034613A1, “Apparatus and Method for Testing Relationships Between Gene Expression and Physical Appearance of Skin” (NSE Products, Inc., priority 2010, published 2012).

System: EpidermFT™ Skin Model (EFT-400) full thickness skin cultures
Assay: Affymetrix GeneChip HG U133 Plus 2.0 microarray global gene expression, agent-exposed vs untreated skin cultures
Format: cell-based, human
Conditions: Salicin 0.5% vs Untreated Control

Compound: OCc1ccccc1O[C@@H]1O[C@H](CO)[C@@H](O)[C@H](O)[C@H]1O [Salicin, 2-(Hydroxymethyl)phenyl β-D-glucospyranoside]
- Fold change TMEM38B (222736_s_at) (24 hr treatment): 2.316
- Fold change TMEM39A (218615_s_at) (24 hr treatment): 2.497
- Fold change TMEM39A (222690_s_at) (24 hr treatment): 2.47
- Fold change TMTC1 (226322_at) (24 hr treatment): 2.647
- Fold change TMTC1 (226931_at) (24 hr treatment): 2.583
- Fold change TNC (216005_at) (24 hr treatment): 2.719
- Fold change TNFAIP6 (206026_s_at) (24 hr treatment): 2.52
- Fold change TNIP3 (220655_at) (24 hr treatment): 2.654
- Fold change TRPA1 (217590_s_at) (24 hr treatment): 2.602
- Fold change TRPC4 (224220_x_at) (24 hr treatment): 2.708
- Fold change UBE2B (239163_at) (24 hr treatment): 2.636
- Fold change UGCGL2 (218801_at) (24 hr treatment): 2.4
- Fold change UST (205139_s_at) (24 hr treatment): 2.454
- Fold change WIPI1 (203827_at) (24 hr treatment): 2.744
- Fold change XPO1 (235927_at) (24 hr treatment): 2.529
- Fold change ZFAND5 (217649_at) (24 hr treatment): 2.438
- Fold change ZFP36L1 (211965_at) (24 hr treatment): 2.705
- Fold change ZNF281 (228785_at) (24 hr treatment): 2.627
- Fold change ZNF331 (219228_at) (24 hr treatment): 2.442
- Fold change ZNF697 (227080_at) (24 hr treatment): 2.599
- Fold change ABCD3 (202850_at) (24 hr, direction down): 2.077
- Fold change ABCG4 (207593_at) (24 hr, direction down): 2.004
- Fold change ACACA (212186_at) (24 hr, direction down): 2.091
- Fold change ACAD9 (224160_s_at) (24 hr, direction down): 2.034
- Fold change ACOX3 (204241_at) (24 hr, direction down): 2.001
- Fold change ADAMTSL4 (226071_at) (24 hr, direction down): 2.137
- Fold change ADARB1 (203865_s_at) (24 hr, direction down): 2.089
- Fold change AHNAK (211986_at) (24 hr, direction down): 2.023
- Fold change AIF1L (223075_s_at) (24 hr, direction down): 2.169
- Fold change AK1 (202587_s_at) (24 hr, direction down): 2.078
- Fold change AK3L1 /// AK3L2 (204347_at) (24 hr, direction down): 2.026
- Fold change ALDH5A1 (203609_s_at) (24 hr, direction down): 2.111
- Fold change ALOX12 (207206_s_at) (24 hr, direction down): 2.124
- Fold change AMACR (209426_s_at) (24 hr, direction down): 2.021
- Fold change AMOTL2 (203002_at) (24 hr, direction down): 2.089
- Fold change ANK3 (207950_s_at) (24 hr, direction down): 2.049
- Fold change APPL2 (218218_at) (24 hr, direction down): 2.013
- Fold change AQP3 (203747_at) (24 hr, direction down): 2.032
- Fold change ARHGAP27 (225618_at) (24 hr, direction down): 2.077
- Fold change ARL17 /// ARL17P1 (1555964_at) (24 hr, direction down): 2.016
- Fold change ARPC1A (200950_at) (24 hr, direction down): 2.042
- Fold change ASAP3 (222236_s_at) (24 hr, direction down): 2.079
- Fold change ATP2B4 (212136_at) (24 hr, direction down): 2.118
- Fold change ATXN3 (205416_s_at) (24 hr, direction down): 2.164
- Fold change BAIAP2 (205293_x_at) (24 hr, direction down): 2.03
- Fold change BCL11A (1559078_at) (24 hr, direction down): 2.151
- Fold change BCL11B (222895_s_at) (24 hr, direction down): 2.021
- Fold change BICD2 (1553021_s_at) (24 hr, direction down): 2.09
- Fold change BLCAP (201032_at) (24 hr, direction down): 2.077
- Fold change C1orf46 (216718_at) (24 hr, direction down): 2.083
- Fold change C1orf71 (225551_at) (24 hr, direction down): 2.006
- Fold change C1orf97 (224443_at) (24 hr, direction down): 2.02
- Fold change C2orf7 (223312_at) (24 hr, direction down): 2.047
- Fold change C4orf3 (224605_at) (24 hr, direction down): 2.002
- Fold change C6orf105 (215100_at) (24 hr, direction down): 2.121
- Fold change C12orf29 (228378_at) (24 hr, direction down): 2.164
- Fold change C15orf52 (227272_at) (24 hr, direction down): 2.042
- Fold change C17orf67 (236863_at) (24 hr, direction down): 2.03
- Fold change C20orf177 (225313_at) (24 hr, direction down): 2.134
- Fold change CALM1 /// CALM2 /// CALM3 (200653_s_at) (24 hr, direction down): 2.056
- Fold change CALM1 /// CALM2 /// CALM3 (209563_x_at) (24 hr, direction down): 2.029
- Fold change CAT (211922_s_at) (24 hr, direction down): 2.095
- Fold change CENPT (218148_at) (24 hr, direction down): 2.074
- Fold change CEP76 (52285_f_at) (24 hr, direction down): 2.004
- Fold change CERK (218421_at) (24 hr, direction down): 2.138
- Fold change CKB (200884_at) (24 hr, direction down): 2.055
- Fold change CLCN5 (232127_at) (24 hr, direction down): 2.126
- Fold change CLDN7 (202790_at) (24 hr, direction down): 2.043
- Fold change CLIP1 (1558924_s_at) (24 hr, direction down): 2.123
- Fold change CLN8 (229958_at) (24 hr, direction down): 2.102
- Fold change CNDP2 (217752_s_at) (24 hr, direction down): 2.002
- Fold change CNTN1 (211203_s_at) (24 hr, direction down): 2.105
- Fold change CSNK2A2 (203575_at) (24 hr, direction down): 2.095
- Fold change CTAGE4 (215549_x_at) (24 hr, direction down): 2.108
- Fold change CXCL12 (203666_at) (24 hr, direction down): 2.074
- Fold change CYB5R1 (202263_at) (24 hr, direction down): 2.119
- Fold change CYCS (244546_at) (24 hr, direction down): 2.168
- Fold change DBI (211070_x_at) (24 hr, direction down): 2.056
- Fold change DDR1 (1007_s_at) (24 hr, direction down): 2.104
- Fold change DDX50 (1568815_a_at) (24 hr, direction down): 2.115
- Fold change DHRS4 /// DHRS4L2 (218021_at) (24 hr, direction down): 2.062
- Fold change DMD (203881_s_at) (24 hr, direction down): 2.165
- Fold change DOPEY2 (205248_at) (24 hr, direction down): 2.103
- Fold change ELOVL3 (234513_at) (24 hr, direction down): 2.048
- Fold change EPCAM (201839_s_at) (24 hr, direction down): 2.093
- Fold change EPHB4 (202894_at) (24 hr, direction down): 2.087
- Fold change EPHB6 (204718_at) (24 hr, direction down): 2.036
- Fold change ERI2 (213365_at) (24 hr, direction down): 2.167
- Fold change F2RL1 (206429_at) (24 hr, direction down): 2.099
- Fold change FAM33A (225684_at) (24 hr, direction down): 2.022
- Fold change FAR1 (224865_at) (24 hr, direction down): 2.117
- Fold change FBXO3 (229955_at) (24 hr, direction down): 2.107
- Fold change FBXO3 (238686_at) (24 hr, direction down): 2.147
- Fold change FBXO9 (212991_at) (24 hr, direction down): 2.083
- Fold change FBXO9 (1559094_at) (24 hr, direction down): 2.099
- Fold change FIGNL1 (222843_at) (24 hr, direction down): 2.071
- Fold change FKBP1B (206857_s_at) (24 hr, direction down): 2.113
- Fold change FKBPL (219187_at) (24 hr, direction down): 2.09
- Fold change FRAG1 (41858_at) (24 hr, direction down): 2.049
- Fold change FUCA1 (202838_at) (24 hr, direction down): 2.147
- Fold change FUT2 (210608_s_at) (24 hr, direction down): 2.05
- Fold change GAB1 (225998_at) (24 hr, direction down): 2.071
- Fold change GAS7 (202192_s_at) (24 hr, direction down): 2.035
- Fold change GDAP1 (226269_at) (24 hr, direction down): 2.153
- Fold change GNG4 (205184_at) (24 hr, direction down): 2.054
- Fold change GPR1 (214605_x_at) (24 hr, direction down): 2.109
- Fold change GPR137B (204137_at) (24 hr, direction down): 2.046
- Fold change GSN (200696_s_at) (24 hr, direction down): 2.089
- Fold change HES5 (239230_at) (24 hr, direction down): 2.078
- Fold change HIGD1A (217845_x_at) (24 hr, direction down): 2.017
- Fold change HN1 (222396_at) (24 hr, direction down): 2.105
- Fold change HN1L (212115_at) (24 hr, direction down): 2.003
- Fold change HSDL2 (209512_at) (24 hr, direction down): 2.126
- Fold change ID2 (201565_s_at) (24 hr, direction down): 2.158
